From patent publication US10537570B2, “Use of pimobendan for the reduction of heart size and/or the delay of onset of clinical symptoms in patients with asymptomatic heart failure due to mitral valve disease” (priority 2016, dated 2020)

Legend:
dogs = conditions: two dogs; long-term (chronic) clinical therapy; Tissier R et al. 2005; cited from earlier work
[1] = test system: dogs with MMVD and echocardiographic and radiographic evidence of cardiomegaly; assay: Blinded, placebo controlled study of 360 dogs (preliminary analysis of final results)
[2] = test system: dogs with asymptomatic mitral valve disease; conditions: after addition of pimobendan to ACE inhibitor treatment; Ouellet M et al. 2009; cited from earlier work
[3] = test system: dogs suffering from asymptomatic (occult, preclinical) heart failure due to mitral valve disease (MVD); assay: Interim analysis: pimobendan vs placebo in dogs with asymptomatic heart failure due to MVD; type: in vivo
[4] = test system: dogs with MMVD and echocardiographic and radiographic evidence of cardiomegaly; conditions: dog, in vivo

COc1ccc(-c2nc3ccc(C4=NNC(=O)CC4C)cc3[nH]2)cc1 (stereo not shown) [pimobendan, 4,5-dihydro-6-[2-(4-methoxyphenyl)-1H-benzimidazol-5-yl]-5-methyl-3(2H)-pyridazinone]
adverse effects (dogs): increased mitral valve regurgitation and myocardial hypertrophy | heart size ([1]; compared to the placebo group, measured over the first 35 days of the study, P<0.0001): reduction in heart size | rate or type of potential adverse events ([1]; pimobendan group vs placebo group): no difference between groups | Median time to the primary endpoint ([1]; pimobendan group, 95% CI 856—NA, placebo group 766 days, P=0.0038): 1228 days | Prolongation of the preclinical period ([1]; vs placebo group): approximately 15 months | Overall survival, as determined by All Cause Mortality ([1]; vs placebo group, P=0.012): significantly longer | long-term changes in the severity of mitral regurgitation [2]: failed to identify beneficial long-term changes | extension of survival time (all-cause mortality) compared to placebo ([3]; also printed as 5.6 months): approx. 168 days | prolongation of time to the onset of clinical signs of congestive heart failure compared to placebo ([3]; also printed as 12.0 months): approx. 359 days | safety and tolerability [4]: safe and well tolerated
